# Data as given in patent US5208148A, “Lipophilic fluorescent glycosidase substrates” (Molecular Probes, Inc., priority 1990, dated 1993).
# Entries after “also recorded” stand apart in the source; their conditions may differ. Structures can show the parent of a compound that is named as a salt. Where two headings read alike, the source gives them in different places.
# How the values were obtained:
# β-galactosidase = molecular target: T1, β-galactosidase (Escherichia coli, UniProt P00722); experiment: In vitro kinetic assay of galactosidase substrates (absorbance increase at 490 nm); type: biochemical; settings: in buffer, pH 7.0, room temperature; for Km: read-out: KM (Michaelis constant)
# T1 construct: purchased Sigma Chemical Co., St. Louis, Mo
# Source text: There are two parameters to describe the catalytic reaction of an enzyme on its substrate. The turnover rate k2, i.e. the substrate conversion rate by one unit of enzyme, can be expressed as μmol/(minute·mg). The Michaelis constant KM which gives the substrate binding ability to an enzyme (the smaller is KM, the higher is binding ability), can be expressed as μM. The relevant data for turnover of five lipophilic FDG substrates by β-galactosidase is detailed in Table 2.
# The substrates have essentially no absorbance at 490 nm while their hydrolysis products from reaction with β-galactosidase have a strong absorbance at this wavelength. Using the extinction coefficients of the products, the substrate hydrolysis rate can be determined by the absorbance increase at 490 nm (Table 2).
# 13.8 g NaH2 PO4.H2 O, 0.2 g MgCl2.6H2 O and 7 mL liquid 2-mercaptoethanol are dissolved in 1 liter distilled water and adjusted to pH 7.0 using NaOH.
# The glycosidase substrates are dissolved at 5 mg/mL in anhydrous DMSO.
# β-Galactosidase (Sigma Chemical Co., St. Louis, Mo.) is dissolved at 1 mg/mL in water. This solution is stable for 24 hours at room temperature.
# A series of substrate concentrations between 1 μM and 1 mM in 2.8 mL of the assay buffer is prepared and pipetted into a cuvette. 0.2 mL of a 1 mg/mL solution of β-galactosidase in water is added in the cuvette at room temperature to initiate the enzymatic reaction and the absorbance increase at 490 nm is immediately recorded in the spectrophotometer equipped with a chart recorder set at a speed of 10 mm/min. The enzyme reaction rate is calculated using an appropriate product extinction coefficient. Double reciprocal plotting of reaction rate and substrate concentration will yield the turnover rate and Michaelis constant (Stryer, BIOCHEMISTRY p. 189 (W. H. Freeman & Co., N.Y. 1988)).
# cells = experiment: Cytotoxicity of the labeling reagent for cultured cells; type: cell-based; settings: for toxicity effects on labelled cells: concentration up to 100 mM
# plant cell populations = settings: cited from earlier work
# [1] = test system: GUS gene positive tobacco plant cells; experiment: Detection of GUS gene expression in transformed plant cells; type: cell-based; settings: 100 μM, 4 h incubation, GUS+ versus control cells
# Protocol: In our cellular assay, the tobacco plant with and without the GUS gene (CaMV35S-GUS, cauliflower mosaic virus 35S promoter with the coding region of GUS) were used. (Ref: Jefferson, R.A., EMBO J., 1987, 6, 3901-3907).
# Sections of the stem of both plants were cultured on Murashige and Skoog basal medium with sucrose and agar inside of plant culture dish at 2000 lux, 18 h day, 26° C. The calli were collected from the dishes, cut to small pieces and transferred to liquid medium (in screw cap 50 ml Erlenmeyer flasks) to get cell suspension with shaking (120 rpm) at the culture room. Sterilized 1 mM FA910 solution (in water) was added to the cell suspension to final concentration of 100μM. After incubating cells in normal condition for 4 h, take 1 ml of suspension, spin down the cells. The cells were resuspended in 100 μl of fresh culture medium, placed onto glass slide, covered with a cover glass and sealed with wax.
# Both the GUS+ and control tobacco cells were examined under a Zeiss microscope equipped with FITC filter set. Photographs were taken of both fluorescent and Nomaski images (Fujichrome P1600D, color reversal film, daylight).
# lacZ+ cell = experiment: Examination of galactosidase activity of sorted cells with resorufin galactoside; type: cell-based; settings: 0.5 mM, 0.1 M phosphate buffer, 0.1% Triton X-100
# Protocol: The sorted cell is collected in a 96 well microtiter plate (Corning, N.Y.). The cell galactosidase activity is examined by means of the permeant fluorogenic substrate resorufin galactoside (Molecular Probes, Inc., Eugene, OR). To 20 μl cell sample in a microtiter well, is added 200 μl of a 0.5 mM resorufin galactoside solution in 0.1 M phosphate buffer containing 1 mM MgCl2 and 0.1% Triton X-100. After 1 hour incubation, the plate is read in a CYTOFLUOR™ fluorescence plate reader (Millipore, Bedford, Mass.) with excitation at 560 nm, emission at 645 nm, sensitivity=1. A fluorescence reading below 20 can be scored lacZ- cell and a reading higher than 60 can be scored lacZ+. The resorufin galactoside can detect the enzyme activity in a single lacZ^+ cell within 1 hour.
# CRE BAG 2 (lacZ+) cells = experiment: Labeling of lacZ+ cells with fluorogenic substrate, fluorescence microscopy; type: cell-based, mouse; settings: 60 μM
# Source text: The photographs were taken under a Zeiss Axioplan Microscope equipped with FITC filter set using Fujichrome p1600 color reversal (slide) film. This film was then commercially developed. The black and white photographs were printed from color slides under the following conditions: 1)Internegative using Ilford Panf film, exposed for 1/60 sec. at f11;2) black and white prints on Kodak polycontrast III paper.
# (§1) CRE BAG 2 (lacZ+) cells were used to test the effectiveness of the substrate in labeling lacZ+ cells. NIH3T3 (lacZ-) cells were used as a control. Both cell lines were obtained from American Type Culture Collection Co., Rockville, Md. The cells were grown in a humidified atmosphere of 5% CO2 in Dulbecco's modified Eagle's medium (DMEM) supplemented with 10% calf serum, 50 μg/ml gentamycin, 300 μg/ml L-glutamine and 10 mM HEPES pH 7.4 (culture medium).
# (§2) to 1.0 mg of 5-fattyacylaminofluorescein di-β-galactopyranoside substrate (C12 FDG) was added 0.1193 ml of 20% DMSO to get 10 mM stock solution. Stock solutions were kept sealed in the brown bottle and stored at 4° C.
# (§3) […] Labeling culture medium was filter-sterilized by passing through an ACRODISC™ filter (0.20 μm pore size).
# Cells were washed with fresh (non-labeling) culture medium before examination. […] After 6 hrs., the fluorescence intensity in CRE BAG 2 cells reached its highest level.
# NIH3T3 (lacZ-) cells = experiment: Labeling of lacZ- control cells with fluorogenic substrate, fluorescence microscopy; type: cell-based, mouse; settings: 60 μM, after 1 hr. incubation
# Protocol: as §1, §2, §3
# Cells were washed with fresh (non-labeling) culture medium before examination. Cells were observed using a microscope equipped with a fluorescein filter. […] After 6 hrs., the fluorescence intensity in CRE BAG 2 cells reached its highest level.
# T1 sequence (P00722 2-1024): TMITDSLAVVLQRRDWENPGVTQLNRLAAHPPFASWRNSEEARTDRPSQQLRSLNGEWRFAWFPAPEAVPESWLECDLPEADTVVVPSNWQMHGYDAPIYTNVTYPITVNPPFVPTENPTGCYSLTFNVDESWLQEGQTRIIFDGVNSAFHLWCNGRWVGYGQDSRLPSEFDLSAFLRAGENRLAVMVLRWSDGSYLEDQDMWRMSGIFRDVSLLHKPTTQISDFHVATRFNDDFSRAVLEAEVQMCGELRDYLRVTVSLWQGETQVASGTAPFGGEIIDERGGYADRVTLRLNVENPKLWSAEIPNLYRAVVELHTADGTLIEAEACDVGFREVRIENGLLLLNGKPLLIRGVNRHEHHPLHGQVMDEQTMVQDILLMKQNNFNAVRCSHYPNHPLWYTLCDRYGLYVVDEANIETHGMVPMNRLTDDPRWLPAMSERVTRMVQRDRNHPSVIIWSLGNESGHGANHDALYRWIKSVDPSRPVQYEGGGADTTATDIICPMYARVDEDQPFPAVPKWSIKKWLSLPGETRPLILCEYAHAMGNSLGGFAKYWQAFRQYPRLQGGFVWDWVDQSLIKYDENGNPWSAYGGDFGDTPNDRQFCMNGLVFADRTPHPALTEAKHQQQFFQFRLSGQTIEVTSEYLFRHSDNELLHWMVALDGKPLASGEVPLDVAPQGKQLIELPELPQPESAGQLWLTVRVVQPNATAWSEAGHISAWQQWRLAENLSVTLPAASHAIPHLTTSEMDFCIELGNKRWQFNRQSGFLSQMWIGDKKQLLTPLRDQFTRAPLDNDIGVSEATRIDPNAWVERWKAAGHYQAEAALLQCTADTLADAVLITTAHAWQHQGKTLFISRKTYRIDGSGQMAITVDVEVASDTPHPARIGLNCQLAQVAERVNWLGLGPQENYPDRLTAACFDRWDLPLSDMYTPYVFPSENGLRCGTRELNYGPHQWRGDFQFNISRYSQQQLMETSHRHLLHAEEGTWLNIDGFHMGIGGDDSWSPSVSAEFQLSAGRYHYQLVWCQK
Compound,k2 (turnover rate) (β-galactosidase) [µmol/min/mg],Km (β-galactosidase) [µM],toxicity effects on labelled cells (cells),toxicity to the cells (plant cell populations),also measured
CCCCCCCCCCCCCCCCCC(=O)Nc1ccc2c(c1)C(=O)OC21c2ccc(O[C@@H]3O[C@H](CO)[C@H](O)[C@H](O)[C@H]3O)cc2Oc2cc(O[C@@H]3O[C@H](CO)[C@H](O)[C@H](O)[C@H]3O)ccc21 [C18 FDG],8.28,20.8,no detectible toxicity effects,,
rhodamine isothiocyanate [RITC],,,,non-toxic,toxicity to the cells at high levels (plant cell populations): toxic at high levels
fluorescein isothiocyanate [FITC],,,,non-toxic,toxicity to the cells at high levels (plant cell populations; high levels): toxic at high levels
"O=C1OC2(c3ccc(O[C@@H]4O[C@H](CO)[C@H](O)[C@H](O)[C@H]4O)cc3Oc3cc(O[C@@H]4O[C@H](CO)[C@H](O)[C@H](O)[C@H]4O)ccc32)c2ccccc21 [C0 FDG, fluorescein di-62-galactopyranoside, reference compound]",1.90,18,,,
"CCCCCCCCCCCC(=O)Nc1ccc2c(c1)C(=O)OC21c2ccc(O[C@@H]3O[C@H](C(=O)O)[C@@H](O)[C@H](O)[C@H]3O)cc2Oc2cc(O[C@@H]3O[C@H](C(=O)O)[C@@H](O)[C@H](O)[C@H]3O)ccc21 [FA910, 5-DODECANOYLAMINOFLUORESCEIN DI-β-D-GLUCOPYRANOSIDURONIC ACID, DI-LITHIUM SALT]",,,,,staining of tobacco cells (yellowish-green fluorescence) [1]: Only the GUS gene positive tobacco plant cells were stained
O=c1ccc2nc3ccc(O[C@@H]4O[C@H](CO)[C@H](O)[C@H](O)[C@H]4O)cc3oc-2c1 [resorufin galactoside],,,,,time to detect enzyme activity in a single lacZ+ cell (lacZ+ cell): ≤ 1 h
"CCCCCCCCCCCC(=O)Nc1ccc2c(c1)C(=O)OC21c2ccc(O[C@@H]3O[C@H](CO)[C@H](O)[C@H](O)[C@H]3O)cc2Oc2cc(O[C@@H]3O[C@H](CO)[C@H](O)[C@H](O)[C@H]3O)ccc21 [C12 FDG, 5-DODECANOYLAMINOFLUORESCEIN DI-β-D-GALACTOPYRANOSIDE]",0.0537,0.316,no detectible toxicity effects,,time at which fluorescence intensity in CRE BAG 2 cells reached its highest level (CRE BAG 2 (lacZ+) cells): 6 h; fluorescence inside CRE BAG 2 cells (CRE BAG 2 (lacZ+) cells; after 1 hr. incubation): fluorescence was observed inside CRE BAG 2 cells; fluorescence in 3T3 cells (NIH3T3 (lacZ-) cells): not in 3T3 cells; population doubling time compared with control (cells; 60 μM labeling medium): same population doubling time as the control; population doubling time compared with control (cells; 0.2 mM in the culture medium): same population doubling time as the control; morphology and viability of cells (cells; grown in 0.2 mM for 10 days): normal morphology and remained viable; also recorded: normal in morphology and appearance; second generation of subcultured cells (cells; preincubated in 60 μM for 24 hrs.): cells of second generation were normal; second generation of subcultured cells (cells; preincubated in the labeled culture medium for 24 hrs.): cells of the second generation were normal
CCCCCCCCCCCCCCCC(=O)Nc1ccc2c(c1)C(=O)OC21c2ccc(O[C@@H]3O[C@H](CO)[C@H](O)[C@H](O)[C@H]3O)cc2Oc2cc(O[C@@H]3O[C@H](CO)[C@H](O)[C@H](O)[C@H]3O)ccc21 [C16 FDG],0.273,1.06,no detectible toxicity effects,,
"CCCCCCCCCCCCCCCCCCOC(=O)c1ccccc1-c1c2ccc(=[N+](CC)CC)cc-2oc2cc(N(CC)CC)ccc12 [Example R18, octadecyl rhodamine B]",,,,non-toxic,
"CCCCCCCCCCCCCCCCCC(=O)Nc1ccc2c(c1)C(=O)OC21c2ccc(O)cc2Oc2cc(O)ccc21 [Example F18, octadecanoyl aminofluorescein]",,,,non-toxic,
